Reference: patent US7326700B2, “Cyclohexenyl phenyl carboxamides tocolytic oxytocin receptor antagonists” (Wyeth, priority 2001, dated 2008)

Target: T1, human vasopressin V1a receptor subtype (Homo sapiens, UniProt P37288)
T1 construct: host or cells: CHO cells, stably transfected (pZeoSV vector for the Thibonnier line)
Test: Vasopressin binding in CHO cell membranes expressing human vasopressin V1a subtype receptors ([3H]Manning ligand radioligand binding)
Description: Chinese hamster ovary cells (CHO cells) stably transfected with the human vasopressin V1a subtype receptors were either obtained from Biosignal Inc., 1744 rue Williams, Montreal, Quebec, Canada or obtained from M. Thibonnier, Case Western Reserve University School of Medicine, Cleveland, Ohio.
CHO cells transfected with the human vasopressin V1a subtype receptors obtained from M. Thibonnier (pZeoSV vector) are allowed to grow to confluency (approx. >90%) in T-150 flasks under sterile conditions, in a cell culture medium consisting of F-12 Nutrient Mixture (HAM) with L-glutamine (Gibco Cat. #11765-054) containing 15 mM HEPES (Gibco Cat. #15630-080), 1% antibiotic/antimycotic (add 5 mL 100×, Gibco Cat. #15240-062 per 500 mL F-12), 250 μg/mL Zeocin (add 1.25 mL of 100 mg/mL Invitrogen R-250-01 per 500 mL F-12) and 10% Fetal Bovine Serum (Qualified, heat inactivated, Gibco Cat. #16140-063). The medium is removed by aspiration and the cells are washed with 10 mL of Hank's Balanced Salt solution (Gibco Cat. #14175-095). The salt solution is removed by aspiration and the cells are trypsinized with 5 mL of trypsin-EDTA (0.05% trypsin, 0.53 mM EDTA-4Na, Gibco Cat. #25300-070) for 1 min. The trypsin is removed by aspiration and the cells dislodged by tapping. Cell Culture medium (eg, 30 mL for 1:30 split) is immediately added and mixed well to inactivate trypsin. 1 mL of detached cells is added to new culture flasks containing fresh cell culture medium (eg, into 25 mL per T-150 flask), and mixed gently. The cells are incubated at 37° C. in 5% CO2. The medium is changed at 3 to 4 days interval (or as appropriate). The cells grow to confluency (approx. >75%-95%) within 7-8 days. All steps are done under sterile conditions.
The cells are washed twice gently with Hank's Balanced Salt solution (e.g,. use 10 mL per T-150 flask). The excess is removed and the cells are bathed for 15-30 min. in an enzyme-free Cell Dissociation Buffer (e.g. use 8 mL Hank's Based, Gibco Cat. #13150-016 per T-150 flask) until the cells are loosened. The contents are transferred to centrifuge tubes (50 mL) kept in an ice bath. All subsequent steps are done at 4° C. The tubes are centrifuged at 300×g for 15 min (1380 rpm on SORVAL, Model RT6000D, using the rotor for 50 mL tubes). The supernatant is discarded and the cells suspended in homogeneizing buffer (10 mM Tris-HCl containing 0.25 M sucrose and 1 mM EDTA, pH 7.4) ensuring that the volume of the buffer is about ten times the volume of the cell pellet. The cells are pooled into a centrifuge tube (50 mL) and homogenized with Polytron at setting 6 for 10 sec. The homogenate is transferred into a Potter-Elvjehm homogenizer and homogenized with 3 strokes. The homogenate is centrifuged at 1500×g for 10 min at 4° C. (3100 rpm using SORVAL, model RT6000D, using the rotor for 50 mL tubes). The pellet is discarded. The supernatant is centrifuged at 100,000×g for 60 min. at 4° C. (Beckman L8-80M ultracentrifuge; spin at 37,500 rpm with rotor type 70 Ti for 50 mL tubes; 38,000 rpm with type 80Ti for 15 mL tubes; or 35,800 rpm with rotor type 45Ti). The supernantant is discarded and the pellet suspended in 3 to 4 mL of Tris buffer (50 mM TRIS-HCl, pH 7.4). The protein content is estimated by the Bradford or Lowry method. The volume of the membrane suspension is adjusted with the membrane buffer (50 mM Tris-HCl containing 0.1% BSA and 0.1 mM PMSF) to give 3.0 mg/mL (or as appropriate) of protein. The membranes are aliquoted and stored at −70° C.
In wells of a 96-well format microtiter plate, is added 90, 110 or 130 μL (to make up a final volume of 200 μL) of assay buffer containing 50 mM of Tris-HCl (pH 7.4), BSA (heat inactivated, protease-free), […], 1 mg % aprotinin, 1 mg % leupeptin, 2 mg % 1,10-phenanthroline, 10 mg % trypsin inhibitor, and 0.1 mM PMSF. The inhibitors are added on the day of the experiment. […]

T1 sequence (P37288 whole entry): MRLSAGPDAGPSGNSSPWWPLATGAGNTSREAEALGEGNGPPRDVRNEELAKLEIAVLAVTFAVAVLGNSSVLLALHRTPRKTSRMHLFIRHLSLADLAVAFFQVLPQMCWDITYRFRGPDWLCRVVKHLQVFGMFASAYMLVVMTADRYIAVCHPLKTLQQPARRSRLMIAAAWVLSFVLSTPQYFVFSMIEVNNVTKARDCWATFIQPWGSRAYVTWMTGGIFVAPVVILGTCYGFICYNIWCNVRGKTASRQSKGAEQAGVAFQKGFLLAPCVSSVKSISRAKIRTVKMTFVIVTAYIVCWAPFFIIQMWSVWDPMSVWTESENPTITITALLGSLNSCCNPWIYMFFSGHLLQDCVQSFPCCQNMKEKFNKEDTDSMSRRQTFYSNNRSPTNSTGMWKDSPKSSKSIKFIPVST

Row | Compound | V1a % inhibition @ 100 nM | IC50 (value in parentheses)
1 | Cc1cc(C(=O)N2Cc3ccc(C(=O)NCCCN(C)C)n3Cc3ccccc32)ccc1C1=CCCCC1 [Example 14, 10-[4-(1-Cyclohex-1-en-1-yl)-3-methylbenzoyl]-N-[3-(dimethylamino)propyl]-10,11-dihydro-5H-pyrrolo[2,1-c][1,4]benzodiazepine-3-carboxamide] | 24% | –
2 | Cc1cc(C(=O)N2Cc3ccc(C(=O)N(C)CCN(C)C)n3Cc3ccccc32)ccc1C1=CCCCC1 [Example 15, 10-[4-(1-Cyclohex-1-en-1-yl)-3-methylbenzoyl]-N-[2-(dimethylamino)ethyl]-N-methyl-10,11-dihydro-5H-pyrrolo[2,1-c][1,4]benzodiazepine-3-carboxamide] | 71% | –
3 | Cc1cc(C(=O)N2Cc3ccc(C(=O)N(C)CCCN(C)C)n3Cc3ccccc32)ccc1C1=CCCCC1 [Example 16, 10-[4-(1-Cyclohex-1-en-1-yl)-3-methylbenzoyl]-N-[3-(dimethylamino)propyl]-N-methyl-10,11-dihydro-5H-pyrrolo[2,1-c][1 ,4]benzodiazepine-3-carboxamide] | 55% | –
4 | Cc1cc(C(=O)N2Cc3ccc(C(=O)N4CCC(N5CCCCC5)CC4)n3Cc3ccccc32)ccc1C1=CCCCC1 [Example 17, {10-[4-(1-Cyclohex-1-en-1-yl)-3-methylbenzoyl]-10,11-dihydro-5H-pyrrolo[2,1-c][1,4]benzodiazepin-3-yl}[4-(1-piperidinyl)-1-piperidinyl]methanone] | 30% | –
5 | Cc1cc(C(=O)N2Cc3ccc(C(=O)NCCCn4ccnc4)n3Cc3ccccc32)ccc1C1=CCCCC1 [Example 18, 10-[4-(1-Cyclohex-1-en-1-yl)-3-methylbenzoyl]-N-[3-(1H-imidazol-1-yl)propyl]10,11-dihydro-5H-pyrrolo[2,1-c][1,4]benzodiazepine-3-carboxamide] | 7% | –
6 | Cc1cc(C(=O)N2Cc3ccc(C(=O)N4CCC(N5CCCC5)CC4)n3Cc3ccccc32)ccc1C1=CCCCC1 [Example 19, {10-[4-(1-Cyclohex-1-en-1-yl)-3-methylbenzoyl]-10,11-dihydro-5H-pyrrolo[2,1c][1,4]benzodiazepin-3-yl}[4-(1-pyrrolidinyl)-1-piperidinyl]methanone] | 33% | –
7 | Cc1cc(C(=O)N2Cc3ccc(C(=O)NCCN4CCCCC4)n3Cc3ccccc32)ccc1C1=CCCCC1 [Example 20, 10-[4-(1-Cyclohex-1-en-1-yl)-3-methylbenzoyl]-N-[2-(1-piperidinyl)ethyl]-10,11-dihydro-5H-pyrrolo[2,1-c][1,4]benzodiazepine-3-carboxamide] | 23% | –
8 | Cc1cc(C(=O)N2Cc3ccc(C(=O)NCCC4CCCN4C)n3Cc3ccccc32)ccc1C1=CCCCC1 (stereo not drawn) [Example 21, 10-[4-(1-Cyclohex-1-en-1-yl)-3-methylbenzoyl]-N-[2-(1-methyl-2-pyrrolidinyl)ethyl]-10,11-dihydro-5H-pyrrolo[2,1-c][1,4]benzodiazepine-3-carboxamide] | 28% | –
9 | Cc1cc(C(=O)N2Cc3ccc(C(=O)N4CCN(CCN(C)C)CC4)n3Cc3ccccc32)ccc1C1=CCCCC1 [Example 22, {10-[4-(1-Cyclohex-1-en-1-yl)-3-methylbenzoyl]-10,11-dihydro-5H-pyrrolo[2,1-c][1,4]benzodiazepin-3-yl}{4-[2-(dimethylamino)ethyl]-1-piperazinyl}methanone] | 34% | –
10 | Cc1cc(C(=O)N2Cc3ccc(C(=O)N4CCN(CCN5CCOCC5)CC4)n3Cc3ccccc32)ccc1C1=CCCCC1 [Example 23, {10-[4-(1-Cyclohex-1-en-1-yl)-3-methylbenzoyl]-10,11-dihydro-5H-pyrrolo[2,1-c][1,4]benzodiazepin-3-yl}{4-[2-(4-morpholinyl)ethyl]-1-piperazinyl}methanone] | 27% | –
11 | C=CCN1CCN(C(=O)c2ccc3n2Cc2ccccc2N(C(=O)c2ccc(C4=CCCCC4)c(C)c2)C3)CC1 [Example 24, (4-Allyl-1-piperazinyl){10-[4-(1-cyclohex-1-en-1-yl)-3-methylbenzoyl]-10,11-dihydro-5H-pyrrolo[2,1-c][1,4]benzodiazepin-3-yl}methanone] | 12% | –
12 | Cc1cc(C(=O)N2Cc3ccc(C(=O)N4CCN(C(C)C)CC4)n3Cc3ccccc32)ccc1C1=CCCCC1 [Example 25, {10-[4-(1-Cyclohex-1-en-1-yl)-3-methylbenzoyl]-1 0,11-dihydro-5H-pyrrolo[2,1-c][1,4]benzodiazepin-3-yl}(4-isopropyl-1-piperazinyl)methanone] | 24% | –
13 | Cc1cc(C(=O)N2Cc3ccc(C(=O)N4CCC[C@H]4CN4CCCC4)n3Cc3ccccc32)ccc1C1=CCCCC1 [Example 26, {10-[4-(1-Cyclohex-1-en-1-yl)-3-methylbenzoyl]-10,11-dihydro-5H-pyrrolo[2,1-c][1,4]benzodiazepin-3-yl}[(2S)-2-(1-pyrrolidinylmethyl)pyrrolidinyl]methanone] | 38% | –
14 | Cc1cc(C(=O)N2Cc3ccc(C(=O)N4CC[C@@H](N(C)C)C4)n3Cc3ccccc32)ccc1C1=CCCCC1 [Example 27, {10-[4-(1-Cyclohex-1-en-1-yl)-3-methylbenzoyl]-10,11-dihydro-5H-pyrrolo[2,1-c][1,4]benzodiazepin-3-yl}[(3R)-3-(dimethylamino)pyrrolidinyl]methanone] | 62% | –
15 | {10-[4-(1-Cyclohexen-1-yl)-3-methylbenzoyl]-10,11-dihydro-5H-pyrrolo[2,1-c][1,4]benzodiazepin-3-yl}(4-methyl-piperazin-1-yl)methanone [Example 12] | – | 421 nM
